Key:
[1] = target: rat EP4 receptor (Rattus norvegicus, UniProt P43114); experiment: Rat EP4 receptor antagonistic action by measurement of cAMP amount in CHO-K1 cells; format: cell-based; set-up: expressed in transfected cells; conditions: PGE2 100 nmol/L, CHO-K1 cells stably expressing rat EP4, average of two experiments; read-out: IC50 value with respect to the cAMP production action by PGE2 in rat EP4 receptor expressing CHO-K1 cells
Experimental: Test Example 4: Evaluation Test of Rat EP4 Receptor Antagonistic Action by Measurement of cAMP Amount
Construction of Vector Expressing Rat EP4 Receptor:
The construction was carried out in the same manner as in Test Example 1.
Construction of Cells Stably Expressing Rat EP4 Receptor:
The expression vector of a rat EP4 receptor was transfected into a CHO—K1 cell (ATCC No.: CCL-61). The transfection was carried out according to an appended instruction, using Lipofectoamine (registered trademark) 2000 reagent (Invitrogen Inc.). After the transfection, the cells were cultured in an α-MEM culture medium (product No. 12571063, Invitrogen Inc.) containing G418 (Nakalai Tesque Inc.) to acquire a drug-resistant clone.
Cell Culture and Treatment with Compound:
CHO—K1 cells stably expressing a rat EP4 were seeded in 96-well plates at 0.5×10^4 cells/100 μL and cultured overnight. […]
The cAMP amount in the cell lysate was measured using a cAMP HiRange kit. […] After incubation, the fluorescence intensity of the cryptate at 620 nm and the fluorescence intensity of the d2 at 665 nm were measured using ARVO1420. The cAMPs of 280, 70, 17.5, 4.38, 1.09, 0.27, and 0.068 nmol/L were added to each well to create a standard curve and the fluorescence intensity was measured as described above. […] An average value was calculated from two experiment results.

[2] = system: db/db mice with type 2 diabetes; experiment: Effect on albumin in urine of db/db mice with type 2 diabetes; format: in vivo, mouse; conditions: 0.3 mg/kg po once per day for one week
Experimental: Test Example 7: Test for Investigation of Effect on Albumin in Urine of db/db Mice with Type 2 Diabetes
db/db Mice (male, 8-week old) with type 2 diabetes were used for the test. The albumin concentrations in urine samples obtained by urine collection for 24 hours were measured by an ELISA method using an anti-mouse albumin antibody (RAM/Alb/7S, Nordic Immunology), and the creatinine concentration in urine was measured using CRE-EN Kainos (Kainos Co., Ltd.). The albumin-creatinine ratio (ACR) in urine was calculated, and a group (n=12) not treated with the test compound and a group (n=12) treated with the test compound were allocated without a bias in ACR. The test compound suspended in a 0.5% methyl cellulose (MC) solution was orally administered to the group treated with the test compound at a dose of 0.3 mg/kg once per day for one week (10 mL/kg). […] Urine was collected for 24 hours from the completion of the final administration, and using the calculated ACR as an indicator, the improvement effect of the test compound on the early nephropathy of the mice with type 2 diabetes was investigated. The inhibitory rate of ACR of the group treated with the test compound by taking the ACR value of the group not treated with the test compound as 100% was determined.

[3] = target: T1, human EP4 receptor (Homo sapiens, UniProt P35408); experiment: Evaluation test of human EP4 receptor affinity ([3H]PGE2 binding, membrane fraction); conditions: 2.9 nmol/L [3H]PGE2, human EP4 cell membrane fraction, 25° C. 60 minutes; read-out: Ki value with respect to the human EP4 receptor
T1 construct: purchased Chemicon
Experimental: Test Example 2: Evaluation Test of Human EP4 Receptor Affinity
[^3H]PGE2 and a human EP4 cell membrane fraction (Chemicon) were diluted with an assay buffer (50 mmol/L HEPES-NaOH, 5 mmol/L MgCl2, 1 mmol/L CaCl2 (pH 7.4), 0.5% bovine serum albumin (BSA)), and the test compound and unlabeled PGE2 (Sigma) were diluted with DMSO and the assay buffer. The composition of the reaction liquid (250 μL) was set to be as follows: 175 μL of an assay buffer containing [^3H]PGE2 (final concentration of 2.9 nmol/L), 50 μL of a membrane fraction (Chemicon, 40 μg protein/mL), and 25 μL of a test compound (final concentrations of 0.1, 1, 10, 100, and 1000 nmol/L). For the measurement of the non-specific binding, the unlabeled PGE2 was added to a final concentration of 10 μmol/L. The final concentration of DMSO was set to 1%. The reaction liquid was incubated at 25° C. for 60 minutes. The reaction liquid was filtered with a GF/C filter paper (Whatman), using a cell harvester (Brandel). The filter paper after filtration was washed three times with 1 mL of a solution containing 50 mmol/L HEPES-NaOH (pH 7.4), 500 mmol/L NaCl, and 0.1% BSA. […] The radioactive activity was measured using a liquid scintillation counter (Perkin Elmer). […] The specific binding amount was determined by subtracting the non-specific binding amount from the total binding amount. The Ki value was calculated according to a standard method.

rat EP4 receptor, sequence (P43114 whole entry): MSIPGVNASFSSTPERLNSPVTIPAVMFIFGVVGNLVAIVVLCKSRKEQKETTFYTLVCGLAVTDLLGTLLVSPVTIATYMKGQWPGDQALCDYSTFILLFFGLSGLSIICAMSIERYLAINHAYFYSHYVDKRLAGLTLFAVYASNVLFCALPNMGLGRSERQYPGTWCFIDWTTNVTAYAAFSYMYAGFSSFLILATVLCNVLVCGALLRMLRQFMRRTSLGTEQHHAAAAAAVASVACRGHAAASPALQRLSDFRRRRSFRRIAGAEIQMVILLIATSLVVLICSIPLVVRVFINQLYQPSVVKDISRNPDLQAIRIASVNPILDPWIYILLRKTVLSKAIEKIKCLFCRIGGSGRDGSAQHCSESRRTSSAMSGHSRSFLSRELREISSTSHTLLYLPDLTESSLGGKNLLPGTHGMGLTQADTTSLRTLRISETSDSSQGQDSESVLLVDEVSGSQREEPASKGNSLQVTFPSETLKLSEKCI
T1 sequence (P35408 whole entry): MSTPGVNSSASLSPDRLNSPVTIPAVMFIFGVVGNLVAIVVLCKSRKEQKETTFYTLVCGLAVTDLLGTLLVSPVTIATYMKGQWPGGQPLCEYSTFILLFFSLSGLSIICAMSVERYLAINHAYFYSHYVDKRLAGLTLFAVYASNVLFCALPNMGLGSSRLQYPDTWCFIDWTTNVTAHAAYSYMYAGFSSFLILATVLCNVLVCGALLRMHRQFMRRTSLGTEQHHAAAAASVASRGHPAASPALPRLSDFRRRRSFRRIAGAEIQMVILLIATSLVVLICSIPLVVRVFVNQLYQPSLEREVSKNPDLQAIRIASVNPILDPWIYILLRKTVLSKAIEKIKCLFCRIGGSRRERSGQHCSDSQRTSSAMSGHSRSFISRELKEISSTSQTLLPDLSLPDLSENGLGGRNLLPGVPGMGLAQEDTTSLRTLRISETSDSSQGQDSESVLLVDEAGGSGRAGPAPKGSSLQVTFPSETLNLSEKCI

Cc1nn(Cc2cc3ccccc3cn2)c(C(=O)N[C@@H](C)c2ccc(C(=O)O)cc2)c1Br [Compound A, 4-[(1S)-1-({[4-bromo-1-(isoquinolin-3-ylmethyl)-3-methyl-1H-pyrazol-5-yl]carbonyl}amino)ethyl]benzoic acid]
IC50 [1]: 1.04 nM
Inhibitory rate of ACR (albumin-creatinine ratio in urine) [2]: 44%
Ki [3]: 1.46 nM

Reference: patent publication US10106523B2, “Amide compound” (ASTELLAS PHARMA INC., priority 2014, dated 2018)
